Test results: PubChem BioAssay (NCI)
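Growth conditions: 96-well plates. Treatment: test compound, 48 hours, 5 concentrations. Analysis: linear interpolation between bracketing concentrations; unreached endpoints set to highest concentration. TGI is the concentration that stops growth completely.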

Legend:
Test in all cases: NCI-60 cell line screen, 48 h
[1] = tested on: 786-0 renal
[2] = tested on: A498 renal
[3] = tested on: A549 NSCLC
[4] = tested on: ACHN renal
[5] = tested on: BT-549 breast
[6] = tested on: CAKI-1 renal
[7] = tested on: CCRF-CEM leukemia
[8] = tested on: COLO 205 colon
[9] = tested on: DU-145 prostate
[10] = tested on: EKVX NSCLC
[11] = tested on: HCC-2998 colon
[12] = tested on: HCT-116 colon
[13] = tested on: HCT-15 colon
[14] = tested on: HL-60(TB) leukemia
[15] = tested on: HOP-62 NSCLC
[16] = tested on: HOP-92 NSCLC
[17] = tested on: HS 578T breast
[18] = tested on: HT29 colon
[19] = tested on: IGROV1 ovarian
[20] = tested on: K-562 leukemia
[21] = tested on: KM12 colon
[22] = tested on: LOX IMVI melanoma
[23] = tested on: M14 melanoma
[24] = tested on: MALME-3M melanoma
[25] = tested on: MCF7 breast
[26] = tested on: MDA-MB-231 breast
[27] = tested on: MDA-MB-435
[28] = tested on: MDA-N
[29] = tested on: MOLT-4 leukemia
[30] = tested on: NCI-H226 lung
[31] = tested on: NCI-H23 lung
[32] = tested on: NCI-H460 lung
[33] = tested on: NCI-H522 lung
[34] = tested on: NCI/ADR-RES ovarian
[35] = tested on: OVCAR-3 ovarian
[36] = tested on: OVCAR-4 ovarian
[37] = tested on: OVCAR-5 ovarian
[38] = tested on: OVCAR-8 ovarian
[39] = tested on: PC-3 prostate
[40] = tested on: RPMI-8226 leukemia
[41] = tested on: RXF 393 renal
[42] = tested on: SF-268 CNS
[43] = tested on: SF-295 CNS
[44] = tested on: SF-539 CNS
[45] = tested on: SK-MEL-2 melanoma
[46] = tested on: SK-MEL-28 melanoma
[47] = tested on: SK-MEL-5 melanoma
[48] = tested on: SK-OV-3 ovarian
[49] = tested on: SN12C renal
[50] = tested on: SNB-19 CNS
[51] = tested on: SNB-75 CNS
[52] = tested on: SR leukemia
[53] = tested on: SW-620 colon
[54] = tested on: T-47D breast
[55] = tested on: TK-10 renal
[56] = tested on: U251 CNS
[57] = tested on: UACC-257 melanoma
[58] = tested on: UACC-62 melanoma
[59] = tested on: UO-31 renal
[60] = tested on: DMS 114 small cell lung
[61] = tested on: HOP-18 NSCLC
[62] = tested on: KM20L2 colon
[63] = tested on: LXFL 529 NSCLC
[64] = tested on: M19-MEL melanoma
[65] = tested on: SNB-78 CNS
[66] = tested on: DLD-1 colon
[67] = tested on: DMS 273 small cell lung

## COc1ccc(SCc2cc(OC)ccc2OC)cc1
[1]
  TGI: > 100 µM
[2]
  TGI: > 87.1 µM
[3]
  TGI: > 100 µM
[4]
  TGI: > 100 µM
[5]
  TGI: > 74.3 µM
[6]
  TGI: > 100 µM
[7]
  TGI: > 96.4 µM
[8]
  TGI: > 61 µM
[9]
  TGI: > 100 µM
[10]
  TGI: > 100 µM
[11]
  TGI: 37 µM
[12]
  TGI: > 100 µM
[13]
  TGI: > 66.3 µM
[14]
  TGI: > 100 µM
[15]
  TGI: > 100 µM
[16]
  TGI: 94.3 µM
[17]
  TGI: 97.7 µM
[18]
  TGI: > 100 µM
[19]
  TGI: > 100 µM
[20]
  TGI: > 51.3 µM
[21]
  TGI: > 100 µM
[22]
  TGI: > 100 µM
[23]
  TGI: > 100 µM
[24]
  TGI: > 100 µM
[25]
  TGI: > 100 µM
[26]
  TGI: > 100 µM
[27]
  TGI: 13 µM
[28]
  TGI: 32.7 µM
[29]
  TGI: > 91.2 µM
[30]
  TGI: > 100 µM
[31]
  TGI: > 100 µM
[32]
  TGI: > 100 µM
[33]
  TGI: > 100 µM
[34]
  TGI: > 100 µM
[35]
  TGI: > 91.7 µM
[36]
  TGI: > 100 µM
[37]
  TGI: > 100 µM
[38]
  TGI: > 100 µM
[39]
  TGI: > 100 µM
[40]
  TGI: > 100 µM
[41]
  TGI: > 100 µM
[42]
  TGI: > 100 µM
[43]
  TGI: > 100 µM
[44]
  TGI: > 100 µM
[45]
  TGI: > 88.8 µM
[46]
  TGI: > 100 µM
[47]
  TGI: 98.9 µM
[48]
  TGI: > 71.8 µM
[49]
  TGI: > 100 µM
[50]
  TGI: > 100 µM
[51]
  TGI: > 52.8 µM
[52]
  TGI: > 100 µM
[53]
  TGI: > 100 µM
[54]
  TGI: > 100 µM
[55]
  TGI: > 100 µM
[56]
  TGI: > 100 µM
[57]
  TGI: > 100 µM
[58]
  TGI: > 100 µM
[59]
  TGI: > 100 µM

## CC(=O)c1cc2c(Br)cccc2oc1=O
[1]
  TGI: > 100 µM
[2]
  TGI: > 100 µM
[3]
  TGI: > 100 µM
[4]
  TGI: > 100 µM
[5]
  TGI: > 100 µM
[6]
  TGI: > 100 µM
[7]
  TGI: > 100 µM
[8]
  TGI: > 100 µM
[9]
  TGI: > 100 µM
[10]
  TGI: > 100 µM
[11]
  TGI: > 100 µM
[12]
  TGI: > 100 µM
[13]
  TGI: > 100 µM
[14]
  TGI: > 100 µM
[15]
  TGI: > 100 µM
[16]
  TGI: > 100 µM
[17]
  TGI: > 100 µM
[18]
  TGI: > 100 µM
[19]
  TGI: > 100 µM
[20]
  TGI: > 100 µM
[22]
  TGI: > 100 µM
[23]
  TGI: > 100 µM
[24]
  TGI: > 100 µM
[25]
  TGI: > 100 µM
[26]
  TGI: > 100 µM
[27]
  TGI: > 100 µM
[28]
  TGI: > 100 µM
[29]
  TGI: > 100 µM
[30]
  TGI: > 100 µM
[31]
  TGI: > 100 µM
[32]
  TGI: > 100 µM
[33]
  TGI: > 100 µM
[34]
  TGI: > 100 µM
[35]
  TGI: > 100 µM
[36]
  TGI: > 100 µM
[37]
  TGI: > 100 µM
[38]
  TGI: > 100 µM
[39]
  TGI: > 100 µM
[40]
  TGI: > 100 µM
[41]
  TGI: > 100 µM
[42]
  TGI: > 100 µM
[43]
  TGI: > 100 µM
[44]
  TGI: > 100 µM
[45]
  TGI: > 100 µM
[46]
  TGI: > 100 µM
[47]
  TGI: > 100 µM
[49]
  TGI: > 100 µM
[50]
  TGI: > 100 µM
[51]
  TGI: > 100 µM
[52]
  TGI: > 100 µM
[53]
  TGI: > 100 µM
[54]
  TGI: > 100 µM
[55]
  TGI: > 100 µM
[56]
  TGI: > 100 µM
[57]
  TGI: > 100 µM
[58]
  TGI: > 100 µM

## C=CCCC(O)c1cc(C)c(O)c(C)c1 (stereo not drawn)
[1]
  TGI: > 100 µM
[2]
  TGI: > 100 µM
[3]
  TGI: > 100 µM
[4]
  TGI: > 100 µM
[7]
  TGI: > 100 µM
[8]
  TGI: > 100 µM
[60]
  TGI: > 100 µM
[10]
  TGI: > 100 µM
[11]
  TGI: > 100 µM
[13]
  TGI: > 100 µM
[14]
  TGI: > 100 µM
[61]
  TGI: > 100 µM
[15]
  TGI: > 100 µM
[19]
  TGI: > 100 µM
[20]
  TGI: > 100 µM
[21]
  TGI: > 100 µM
[62]
  TGI: > 100 µM
[22]
  TGI: > 100 µM
[63]
  TGI: > 100 µM
[23]
  TGI: > 100 µM
[64]
  TGI: > 100 µM
[24]
  TGI: > 100 µM
[29]
  TGI: > 100 µM
[30]
  TGI: > 100 µM
[31]
  TGI: > 100 µM
[32]
  TGI: > 100 µM
[33]
  TGI: > 100 µM
[35]
  TGI: > 100 µM
[37]
  TGI: > 100 µM
[38]
  TGI: > 100 µM
[40]
  TGI: > 100 µM
[41]
  TGI: > 100 µM
[42]
  TGI: > 100 µM
[43]
  TGI: > 100 µM
[44]
  TGI: > 100 µM
[45]
  TGI: > 100 µM
[46]
  TGI: > 100 µM
[47]
  TGI: > 100 µM
[48]
  TGI: > 100 µM
[49]
  TGI: > 100 µM
[50]
  TGI: > 100 µM
[51]
  TGI: > 100 µM
[65]
  TGI: > 100 µM
[53]
  TGI: > 100 µM
[55]
  TGI: > 100 µM
[56]
  TGI: > 100 µM
[57]
  TGI: > 100 µM
[58]
  TGI: > 100 µM
[59]
  TGI: > 100 µM

## O=C(CC1(O)C(=O)Nc2ccccc21)c1ccc(Cl)c(Cl)c1 (stereo not drawn)
[1]
  TGI: > 100 µM
[2]
  TGI: > 100 µM
[3]
  TGI: > 100 µM
[4]
  TGI: > 100 µM
[6]
  TGI: > 100 µM
[7]
  TGI: > 100 µM
[8]
  TGI: > 100 µM
[66]
  TGI: > 100 µM
[60]
  TGI: > 100 µM
[67]
  TGI: > 100 µM
[10]
  TGI: > 100 µM
[11]
  TGI: > 100 µM
[12]
  TGI: > 100 µM
[13]
  TGI: > 100 µM
[14]
  TGI: > 100 µM
[16]
  TGI: > 100 µM
[18]
  TGI: > 100 µM
[19]
  TGI: > 100 µM
[20]
  TGI: > 100 µM
[62]
  TGI: > 100 µM
[22]
  TGI: > 100 µM
[63]
  TGI: > 100 µM
[23]
  TGI: > 100 µM
[64]
  TGI: > 100 µM
[29]
  TGI: > 100 µM
[30]
  TGI: > 100 µM
[31]
  TGI: > 100 µM
[32]
  TGI: > 100 µM
[33]
  TGI: > 100 µM
[36]
  TGI: > 100 µM
[37]
  TGI: > 100 µM
[40]
  TGI: > 100 µM
[41]
  TGI: > 100 µM
[42]
  TGI: > 100 µM
[43]
  TGI: > 100 µM
[44]
  TGI: > 100 µM
[45]
  TGI: > 100 µM
[46]
  TGI: > 100 µM
[47]
  TGI: > 100 µM
[48]
  TGI: > 100 µM
[49]
  TGI: > 100 µM
[50]
  TGI: > 100 µM
[51]
  TGI: > 100 µM
[65]
  TGI: > 100 µM
[52]
  TGI: > 100 µM
[53]
  TGI: > 100 µM
[56]
  TGI: > 100 µM
[58]
  TGI: > 100 µM
[59]
  TGI: > 100 µM
